In article PMC2120305 (The Journal of Cell Biology, 1994):
“And” between values parts separate entries of the source, which are not always exact repeats. Identical values can stand only once. Like-named read-outs stand apart in the source and are kept apart here.

Tests used:
[1] = tested on: glycosylation of VSV-g protein; type: biochemical, CHO cells
[2] = tested on: Golgi membranes; test: Membrane integrity: retention of a preformed UDP-[3H]-GlcNAc gradient; type: biochemical, CHO cells; conditions: Fig. 5 A; MAS 3.3 µM, ARFp13 43 µM, NEM 1 mM, SDS 50 µM; 10 min with inhibitors
[3] = tested on: glycosylation of endogenous VSV-g protein; type: biochemical, CHO cells
[4] = tested on: release of vesicles from the TGN of PC12 cells; conditions: cited from earlier work
[5] = tested on: beta-COP binding to isolated Golgi membranes; conditions: 25 µM MAS; cited from earlier work
[6] = tested on: in vitro Golgi transport; type: biochemical, CHO cells
[7] = tested on: p200 binding to rat liver Golgi membranes; conditions: 100 µM MAS; cited from earlier work

CCN1C(=O)C=CC1=O [NEM]
Glycosylation of VSV-g protein after its delivery to the acceptor compartment [1]: subse- quent glycosylation is inhibited | Integrity of the membranes [2]: near complete loss of membrane integrity | Effect on glycosylation of VSV-g protein [3]: similarly inhibitory effect

CCCCCCCCCCCCOS(=O)(=O)[O-].[Na+] [SDS]
Integrity of the membranes [2]: only partially compromised | Effect on glycosylation of VSV-g protein [3]: similarly inhibitory effect

Mastoparan
Glycosylation of VSV-g protein after its delivery to the acceptor compartment [1]: subse- quent glycosylation is inhibited | IC50 ([1]; read-out: IC50, peptide added before glycosylation): 2.8 µM and 1.9 µM | Integrity of the membranes [2]: near complete loss of membrane integrity | Inhibition of release of vesicles from the TGN [4]: ~30% | Increase in the amount of beta-COP bound to isolated Golgi membranes [5]: 10 fold | Effect on glycosylation of VSV-g protein [3]: similarly inhibitory effect | IC50 with normal versus ARF-depleted cytosol [6]: the same | IC50 ([6]; read-out: IC50 for inhibition of in vitro Golgi transport): 0.75 µM | IC50 ([6]; read-out: IC50 in vitro transport, addition of BFA 0 µM): 2.2 µM | IC50 ([6]; read-out: IC50 in vitro transport, addition of BFA 200 µM): 2 µM | IC50 ([6]; read-out: IC50 in vitro transport, addition of GTP 0 µM): 1.4 µM | IC50 ([6]; read-out: IC50 in vitro transport, addition of GTP 50 µM): 1.3 µM | IC50 ([6]; read-out: IC50 in vitro transport, mock-treated membranes): 1.3 µM | IC50 ([6]; read-out: IC50 in vitro transport, pertussis toxin treated membranes): 1.3 µM | Stimulation of p200 binding to rat liver Golgi membranes in vitro [7]: more than sevenfold

Pertussis toxin
Stimulation of TGN vesicle release after pertussis toxin treatment [4]: 1.6- 1.7 fold
